Laboratory results from US7906308B2, “Phosphorylation and regulation of Akt/PKB by the rictor-mTOR complex” (Whitehead Institute for Biomedical Research, priority 2005, dated 2011).

Legend:
[1] = target: T1, rictor-mTOR complex (Homo sapiens, UniProt P42345); test: rictor-mTOR immunoprecipitate kinase assay with Akt1/PKB1 as substrate; type: biochemical; conditions: immunoprecipitates from HEK-293T or HeLa cells; FIG. 3C
T1 construct: Immunoprecipitates prepared from lysates of HEK-293T or HeLa cells with the indicated antibodies; endogenous in cells; host or cells: A1: HEK-293T or HeLa; A11: PC3, BJAB, Jurkat, HeLa, H460 (treated with rapamycin before lysis)
Description: For all immunoprecipitation experiments the lysis buffer contained 0.3% CHAPS instead of 1% Triton in order to preserve the integrity of the mTOR complexes (D. D. Sarbassov et al., Curr Biol 14, 1296 (2004); D.-H. Kim et al., Cell 110, 163 (2002)). 4 μg of the indicated antibodies were added to the cleared cellular lysates and incubated with rotation for 90-min. 25 μl of a 50% slurry of protein G-sepharose was then added and the incubation continued for 1 h. Immunoprecipitates captured with protein G-sepharose were washed four times with the CHAPS Lysis Buffer and once with the rictor-mTOR kinase buffer (25 mM Hepes pH 7.5, 100 mM potassium acetate, 1 mM MgCl2). […] After a quick spin, the supernatant was removed from the protein G-sepharose and analyzed by immunoblotting (D.-H. Kim et al., Cell 110, 163 (2002)). […] Supernatants were used in the Akt1/PKB1 kinase assay as described below and were also analyzed by immunoblotting. The pelleted G-sepharose beads were also analyzed by immunoblotting to determine the levels of rictor, mTOR, and raptor in the immunoprecipitates. Akt1/PKB1 kinase activity was determined using Crosstide (Upstate Biotechnology, #12-331) as substrate as recommended by the manufacturers protocol. […] After the washing, the P81 squares were dried and radioactivity read in a scintillation counter.

[2] = target: rictor (UniProt Q6R327)
[3] = tissue penetration with phospho-S6 as marker; type: in vivo, mice; conditions: 10 mg/kg intraperitoneal daily
Description: (§1) 1 mg of rapamycin was dissolved in 20 μl of ethanol, which was then diluted with Ringer's saline solution to a final concentration of 1 mg/ml directly before use. Three-month old male C57BL/6NTac (Taconic) mice were administered daily intraperitioneal injections of 10 mg/kg rapamycin or the drug vehicle for 7 days. Mice were then euthanized with CO2, organs were harvested into RIPA buffer, and homogenized with mechanical disruption followed by sonication. […] The experiment was repeated twice with similar results.

[4] = Morrisett et al. 2003; cited from earlier work
[5] = target: mTORC2 assembly (Homo sapiens, UniProt P42345+P62942); test: 35S pulse-chase of newly synthesized mTOR bound to rictor; type: cell-based; conditions: 100 nM
Sequence of mTORC2 assembly (P62942 2-108 limits assumed, other chains not shown): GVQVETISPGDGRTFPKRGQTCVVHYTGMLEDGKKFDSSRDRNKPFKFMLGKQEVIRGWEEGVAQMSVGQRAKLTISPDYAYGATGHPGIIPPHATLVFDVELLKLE
Description: 4×10^6 Hela or PC3 cells growing in 100 mm dishes were treated with 100 nM rapamycin or vehicle control for 20 minutes, rinsed once in methionine- and cysteine-free DMEM, and then incubated in 3.5 ml of the same medium containing 10% dialyzed serum and 0.1 mCi/ml of ^35S-methionine/^35S-cysteine (Express Protein Labeling Mix, Perkin Elmer). After allowing the cells to label for 30 minutes, the cells were washed once in the normal culture medium and incubated in fresh medium for the periods of time indicated in the figures. […] Quantification was performed using images acquired with a phosphoimager.

[6] = food intake during 7-day treatment; type: in vivo, mice; conditions: 10 mg/kg daily
Description: as §1

[7] = test system: PC3 cells; conditions: literature (Chinni & Sarkar); cited from earlier work
[8] = test system: PC3 cells; test: apoptosis by DNA fragmentation (Cell Death Detection Elisa); conditions: PC3 cells expressing wild-type or S473D Akt1/PKB1, 100 μM
Description: Cells were selected for one week in 200 μg/ml hygromycin before use. 15,000 PC3 (MSCV controls, WT Akt1/PKB1, or 473D Akt1/PKB1) cells were seeded in the wells of a 96 well-plate and cultured overnight. The next day the cells were rinsed once in serum-free medium and then cultured for 48 hrs in serum-free medium containing either DMSO (the small molecule vehicle), 100 nM rapamycin, 100 μM indole-3-carbinol, or both rapamycin and indole-3-carbinol. When indole-3-carbinol was used, 0.002% BSA was added to the medium. After 48 hours in culture all cells (adherent and floating) were processed with the Cell Death Detection Elisa plus (Roche, cat# 1774425) as described by the manufacturer.

[9] = target: full length, wild-type Akt1/PKB1 (inactive, Upstate Biotechnology #14-279) (UniProt P31749)
Sequence of full length, wild-type Akt1/PKB1 (inactive, Upstate Biotechnology #14-279) (P31749 whole entry, looked up, tested part not stated): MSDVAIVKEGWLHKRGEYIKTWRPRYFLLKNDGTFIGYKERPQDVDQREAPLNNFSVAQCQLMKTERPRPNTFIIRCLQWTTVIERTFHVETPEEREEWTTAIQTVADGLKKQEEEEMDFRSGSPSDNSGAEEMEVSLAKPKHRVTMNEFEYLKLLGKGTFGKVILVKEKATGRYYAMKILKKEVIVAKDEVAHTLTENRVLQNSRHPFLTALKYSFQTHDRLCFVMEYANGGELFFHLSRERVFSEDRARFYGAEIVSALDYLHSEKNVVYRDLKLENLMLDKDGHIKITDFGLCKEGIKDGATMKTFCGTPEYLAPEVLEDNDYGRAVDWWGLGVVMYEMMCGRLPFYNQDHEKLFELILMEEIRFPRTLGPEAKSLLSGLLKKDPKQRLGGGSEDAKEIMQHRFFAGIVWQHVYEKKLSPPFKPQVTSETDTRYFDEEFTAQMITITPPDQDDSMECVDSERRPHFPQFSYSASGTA

For `CN[C@@H]1C[C@H]2O[C@@](C)([C@@H]1OC)n1c3ccccc3c3c4c(c5c6ccccc6n2c5c31)C(=O)NC4` [Staurosporine, staurosporine], the “in vitro phosphorylation of Akt/PKB by rictor-mTOR” value [1] was “did not decrease”.

With “mTOR (mammalian Target of Rapamycin kinase)” the “in vitro kinase activity of rictor immunoprecipitates towards Akt/PKB” value [2] was “in HeLa and H460 cells treated with rapamycin for 24 hours, a greater amount of mTOR remained bound to rictor and this correlated with a higher level of kinase activity towards Akt/PKB” and the “in vitro phosphorylation of Akt/PKB by immunoprecipitates” value [2] was “the raptor immunoprecipitates also contain mTOR but did not phosphorylate Akt/PKB”.

In the case of `CO[C@H]1C[C@@H]2CC[C@@H](C)[C@@](O)(O2)C(=O)C(=O)N2CCCC[C@H]2C(=O)O[C@H]([C@H](C)C[C@@H]2CC[C@@H](O)[C@H](OC)C2)CC(=O)[C@H](C)/C=C(\C)[C@@H](O)[C@@H](OC)C(=O)[C@H](C)C[C@H](C)/C=C/C=C/C=C/1C` [rapamycin], the tissue penetration [3] is listed as “penetrates all major tissues except the brain”, the “side effect in patients” value [4] is listed as “hyperlipidemia commonly seen” and the “interaction between newly-synthesized mTOR and rictor prevented” value ([5]; HeLa cells) is listed as 80%. For the same compound, the “interaction between newly-synthesized mTOR and rictor prevented” value ([5]; PC3 cells) was 100% and the “food intake versus vehicle” value [6] was “ate similar amounts”.

For `OCc1c[nH]c2ccccc12` [indole-3-carbinol], the “apoptosis in PC3 cells” value [7] is listed as “known to induce apoptosis” and the induction of apoptosis [8] is listed as “decreased the capacity of indole-3-carbinol to induce apoptosis”.

In the case of rictor-mTOR complex, the “phosphorylation of S473 of Akt/PKB in vitro (immunoblot)” value [9] is reported as “Rictor-mTOR complexes isolated from HEK-293T or HeLa phosphorylated S473 but not T308 of full length, wild-type Akt/PKB in vitro”.
